{
  "source": "patent US20040091947A1",
  "about": "“Screening strategy for anticancer drugs” (priority 2002, published 2004)",
  "key": {"wild-type HT1080 cells": {"system": "wild-type HT1080 cells", "test": "FACS analysis of GF7/PI stained cells, radiation-induced changes in MI", "format": "cell-based, human", "details": "4 mM caffeine, 9 Gy irradiation", "method": "(§1) Mitotic index and the incidence of mitotic catastrophe were determined using mitotic cell specific antibodies (MCSA) as follows. Three different MCSA were compared using fluorescence activated cell sorting (FACS) based on immunofluorescence labeling with MCSA coupled with propidium iodide (PI) staining for DNA content. In this procedure, cells were washed, trypsinized, fixed with an equal volume of 70% ethanol (on ice), resuspended in a small volume of 1% BSA-PBS containing an MCSA, incubated for 1 hour at room temperature, and then washed and bound with secondary (fluorescently-labeled) antibody. The tested MCSA included MPM2 (available from Upstate Biotechnology, Cat. #05-368) and two antibodies provided by Dr. P. Davies (Albert Einstein College of Medicine), including the previously characterized TG3 (Anderson et al., 1998, Exp. Cell Res. 238: 498-502) and unpublished GF7 antibody.\n(§2) FACS analysis of GF7/PI stained cells was used to analyze radiation-induced changes in the MI of HT1080 fibrosarcoma cells with different cell cycle checkpoint integrity status."}, "[1]": {"system": "HT1080 cells transduced with GSE56", "test": "FACS analysis of GF7/PI stained cells, radiation-induced changes in MI", "format": "cell-based, human", "details": "4 mM caffeine, 9 Gy irradiation", "method": "as §1, §2"}, "BJ-EN cells [2]": {"system": "BJ-EN cells", "test": "Fluorescence microscopy of DAPI-stained cells (micronuclei, apoptotic morphology, mitotic index, mitotic figures)"}, "BJ-ELB cells [3]": {"system": "BJ-ELB cells", "test": "Cell growth / cell number by Coulter counter, doxorubicin-treated cells", "format": "cell-based, human", "method": "These cell lines were cultured in a 4:1 mixture of DMEM and Medium 199, with 10% fetal calf serum, supplemented with glutamine, pyruvate, penicillin and streptomycin.\nFor comparative analysis of specific cellular responses, a concentration of 30 nM doxorubicin was chosen, which had approximately equal growth-inhibitory effect in both cell lines (FIG. 3B)."}, "BJ-ELB cells [4]": {"system": "BJ-ELB cells", "test": "Fluorescence microscopy of DAPI-stained cells (micronuclei, apoptotic morphology, mitotic index, mitotic figures)"}, "BJ-EN cells [5]": {"system": "BJ-EN cells", "test": "Cell growth / cell number by Coulter counter, doxorubicin-treated cells"}, "[6]": {"system": "panel of 14 solid tumor-derived cell lines", "details": "moderate equitoxic doses of doxorubicin, 14 lines, cited from earlier work"}, "[7]": {"details": "after release from 30 nM doxorubicin (3 days)"}, "[8]": {"details": "day 2 after release from 30 nM doxorubicin"}, "[9]": {"details": "two days after release from 30 nM doxorubicin (3 days)"}, "[10]": {"details": "two days after release from doxorubicin"}},
  "data": [
    {"smiles": "Cn1c(=O)c2c(ncn2C)n(C)c1=O", "note": "[caffeine]", "values": [
      {"measurement": "increase in MI after irradiation in the presence of caffeine", "setting": "wild-type HT1080 cells", "result": "~2", "unit": "fold"},
      {"measurement": "increase in MI after irradiation in the presence of caffeine", "setting": "[1]", "result": "up to 3 fold"}
    ]},
    {"smiles": "COc1cccc2c1C(=O)c1c(O)c3c(c(O)c1C2=O)C[C@@](O)(C(=O)CO)C[C@@H]3O[C@H]1C[C@H](N)[C@H](O)[C@H](C)O1", "note": "[doxorubicin]", "values": [
      {"measurement": "effect of addition of doxorubicin on mitosis", "setting": "BJ-EN cells [2]; 30 nM doxorubicin present", "result": "immediate and complete cessation of mitosis"},
      {"measurement": "fraction of cells with apoptotic morphology", "setting": "BJ-EN cells [2]; [7]", "result": 0.9, "unit": "%"},
      {"measurement": "mitotic index (MI)", "setting": "BJ-EN cells [2]; [8]", "result": 0.4, "unit": "%"},
      {"measurement": "micronucleated cell fraction", "setting": "BJ-EN cells [2]; [9]", "result": 1.7, "unit": "%"},
      {"measurement": "abnormal mitotic figures", "setting": "BJ-EN cells [2]; [10]", "result": 40, "unit": "%"},
      {"measurement": "mitotic figures that were metaphases and telophases", "setting": "BJ-EN cells [2]; [10]", "result": 29, "unit": "%"},
      {"measurement": "normal mitotic figures", "setting": "BJ-EN cells [2]; [10]", "result": 60, "unit": "%"},
      {"measurement": "change in cell number during doxorubicin treatment", "setting": "BJ-ELB cells [3]; 30 nM doxorubicin, first day", "result": "increased their number on the first day"},
      {"measurement": "change in cell number after release from the drug", "setting": "BJ-ELB cells [3]; day 3 after release (3 dR) from 30 nM doxorubicin", "result": "decreased to the same value as at the time of doxorubicin addition"},
      {"measurement": "effect of addition of doxorubicin on mitosis", "setting": "BJ-ELB cells [4]; 30 nM doxorubicin present", "result": "only partially inhibited"},
      {"measurement": "fraction of cells with apoptotic morphology", "setting": "BJ-ELB cells [4]; [7]", "result": 6.6, "unit": "%"},
      {"measurement": "mitotic index (MI)", "setting": "BJ-ELB cells [4]; [8]", "result": 8.0, "unit": "%"},
      {"measurement": "micronucleated cell fraction", "setting": "BJ-ELB cells [4]; [9]", "result": 26.4, "unit": "%"},
      {"measurement": "mitotic figures that represented anaphase or telophase", "setting": "BJ-ELB cells [4]; [10]", "result": 1, "unit": "%"},
      {"measurement": "normal mitotic figures", "setting": "BJ-ELB cells [4]; [10]", "result": 8, "unit": "%"},
      {"measurement": "change in cell number during doxorubicin treatment", "setting": "BJ-EN cells [5]; 30 nM doxorubicin, 3 days, BJ-EN", "result": "essentially no change in cell number"},
      {"measurement": "resistance to doxorubicin (effect on cell growth)", "setting": "BJ-EN cells [5]; 3-day exposure to different concentrations, BJ-EN compared with BJ-ELB, except for the lowest drug doses", "result": "more resistant to doxorubicin than BJ-ELB cells"},
      {"measurement": "change in cell number after release from the drug", "setting": "BJ-EN cells [5]; three days in drug-free media after 30 nM doxorubicin for 3 days, BJ-EN", "result": "did not change significantly"},
      {"measurement": "lines that showed predominantly apoptotic response", "setting": "[6]; all other lines developed mitotic catastrophe", "result": "two"},
      {"measurement": "lines that exhibited the senescent phenotype after doxorubicin treatment", "setting": "[6]", "result": "Eleven of 14"}
    ]}
  ]
}
